Here are results for 3 molecules from patent US20230143604A1, “QW DOSING OF GIP RECEPTOR AGONIST PEPTIDE COMPOUNDS AND USES THEREOF” (TAKEDA PHARMACEUTICAL COMPANY LIMITED, priority 2020, published 2023).

Series [1] in a line: Human plasma protein binding (PPB). Format: in vitro ADME. Conditions: for fraction unbound at 30 min, 1000 nmol/L: both sexes, pH 7.4. How it is done:
Stock solutions: (1000 μM) of the peptides are prepared in DMSO.
Human plasma (mixed gender; containing K2-EDTA as anti-coagulant; pre-adjusted to pH 7.4—NB alternative species may be used) is spiked individually with each test peptide (1000 nmol/L), sampled for analysis and then incubated (n=4) at 37° C. in a water bath for 30 minutes. Following the incubation period, the plasma is sampled for analysis, then transferred to ultracentrifugation tubes and centrifuged (n=3) at […] and 4° C. for 3 hours, after which the supernatant is sampled for analysis. An additional aliquot of the supernatant is taken at the end of the centrifugation period to determine the total protein concentration. An aliquot of the incubated plasma will be stored at 4° C. for 3 hours and then sampled for analysis. At the point of sampling, all samples are matrix-matched, treated with ice-cold acetonitrile/methanol (4:1 (vfv)) containing internal standard, centrifuged al 2000 g and 4° C. for 10 minutes and stored prior to LC-MS/MS analysis. An appropriate positive control compound control will be incubated and centrifuged in parallel; control plasma is also centrifuged to generate samples for matrix-matching. Fraction unbound in plasma (Fuplasma) values is determined by comparison of the analyte response in plasma to the analyte response in the supernatant, determined via peak area response ratios.
The samples are analyzed by LC-MS/MS using a 6500 (or equivalent) triple quadrupole mass spectrometer (AB Sciex) coupled to an appropriate Liquid Chromatography (LC) system. Protein binding and stability values are determined via peak area ratios using multiple reaction monitoring (MRM) parameters following compound optimisation. Multiple reaction monitoring (MRM) is a highly sensitive method of targeted mass spectrometry (MS) that can be used to selectively detect and quantify peptides based on the screening of specified precursor peptide-to-fragment ion transitions.

A short description of series [2]: Pharmacokinetics in dog after IV and SC dosing. Conditions: in vivo. How it is done:
Pharmacokinetic (PK) were conducted in dog in order to determine the half-life after IV and SC dosing. The peptide was dissolved in 10% DMSO/0.09% Polysorbate/PBS pH 7.4 to a concentration of 3 nmol/mL and the animal were dose with a volume of 1 mL/kg SC or IV. Blood sample were collected at 0, 0.033, 0.083, 0.25, 0.5, 1, 2, 4, 6, 8, 12, 24, 48, 72, 96, 120, 168, 336 hours for IV dosing and 0.25, 0.5, 1, 2, 4, 6, 8, 12, 24, 48, 72, 96, 120, 168, 336 for SC dosing, EDTA-K2 was used as anticoagulant. The plasma concentration of the peptide was measured using LCMS. Allometric scaling of lipidated peptide pharmacokinetics including T1/2 and MRT is known in the art for rodent to dog and mini pig and to humans. […] See for example, Discovery and Development of Liraglutide and Semaglutide. Knudsen, L. B.; Lau, J. Frontiers in Endocrinology, 2019, vol 10, Article 155.

Series [3] is described as follows: physchem. In a few lines: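 3 mg of peptide treated with 100 μL portions of 200 mM phosphate buffer pH 7.4, sonicating/vortexing up to 1 min, with further buffer added until fully dissolved. Solubility then quantified by HPLC.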
Series [4] can be described thus: Dog plasma protein binding (PPB). It is filed as in vitro ADME. The text has this:
Dog PPB values presented below are obtained essentially as described for Human PPB samples, with the difference being that dog serum is used instead of human serum. Table 10 is provided with the values of (Fu,plasma) as fraction unbound expressed as a percentage compared to the percent bound. i.e. if the value is 0.0123, then the fraction unbound is […], which is 1.23% of the peptide is unbound and 98.77% is bound in plasma. Methods and analysis for performing the dog PPB protocol and results are the same as noted herein as for the Human PPB protocol and analysis.

[5] abbreviates: judged for once per week (QW) dosing.

Where two headings read alike, the source gives them in different places. Starred links: 1 amine or outer side, 2 acyl side, 3 side chain; linkers in the order of their positions; H or OH if unused. Non-standard residues stand in square brackets, D forms with d. Residues, ends and D or L forms follow the SMILES beside them. Groups on a side chain read outwards from the residue. *: point of attachment. C18 diacid = O=C(O)CCCCCCCCCCCCCCCCC(=O)*; γGlu = O=C(O)[C@H](CCC(=O)[*:2])N[*:1]; NMeY = CN[C@@H](Cc1ccc(O)cc1)C(=O)O; AEEA = NCCOCCOCC(=O)O; Aib = CC(C)(N)C(=O)O

Take `CC[C@H](C)[C@H](NC(=O)[C@H](Cc1ccccc1)NC(=O)[C@@H](NC(=O)CNC(=O)[C@H](CCC(=O)O)NC(=O)C(C)(C)NC(=O)[C@H](Cc1ccc(O)cc1)NC)[C@@H](C)O)C(=O)N[C@@H](CO)C(=O)N[C@@H](CC(=O)O)C(=O)N[C@@H](Cc1ccc(O)cc1)C(=O)N[C@@H](CO)C(=O)N[C@H](C(=O)NC(C)(C)C(=O)N[C@@H](CC(C)C)C(=O)N[C@@H](CC(=O)O)C(=O)N[C@@H](CCCNC(=N)N)C(=O)NC(C)(C)C(=O)N[C@@H](C)C(=O)N[C@@H](CCC(N)=O)C(=O)NC(C)(C)C(=O)N[C@@H](CC(N)=O)C(=O)N[C@@H](Cc1ccccc1)C(=O)N[C@H](C(=O)N[C@@H](CC(N)=O)C(=O)N[C@@H](Cc1c[nH]c2ccccc12)C(=O)N[C@@H](CC(C)C)C(=O)N[C@@H](CC(C)C)C(=O)N[C@@H](C)C(=O)N[C@@H](CCC(N)=O)C(=O)N[C@@H](CCCCNC(=O)COCCOCCNC(=O)COCCOCCNC(=O)CC[C@H](NC(=O)CC[C@H](NC(=O)CCCCCCCCCCCCCCCCC(=O)O)C(=O)O)C(=O)O)C(=O)N1CCC[C@H]1C(=O)N[C@@H](CO)C(=O)N[C@@H](CO)C(=O)NCC(=O)N[C@@H](C)C(=O)N1CCC[C@H]1C(=O)N1CCC[C@H]1C(=O)N1CCC[C@H]1C(=O)N[C@@H](CO)C(N)=O)C(C)C)[C@@H](C)CC` [Compound 27, Me-Y-Aib-E-G-T-F-I-S-D-Y-S-I-Aib-L-D-R-Aib-A-Q-Aib-N-F-V-N-W-L-L-A-Q-Km-P-S-S-G-A-P-P-P-S-NH2] (H-[NMeY][Aib]EGTFISDYSI[Aib]LDR[Aib]AQ[Aib]NFVNWLLAQK([AEEA-AEEA-γGlu-γGlu-C18 diacid])PSSGAPPPS-NH2): the fraction unbound at 30 min, 1000 nmol/L in series [1] (plasma (K2-EDTA), fraction unbound, human plasma, 1000 nmol/L peptide, ultracentrifugation, read-out: Human PPB (FUplasma)) came out at 0.0013. For the same molecule, the “free unbound peptide in human plasma (in words)” value (from here on “free unbound peptide”) in series [1] (setting [5]) is reported as “optimum free unbound peptide”. This molecule showed a half-life in series [2] (iv, 3 nmol/kg) of 77 h. Further, in series [2] (sc, 3 nmol/kg), the mean residence time (MRT last) was 109 h. In addition, the solubility is at least 15 mg/mL in series [3] (pH 7.4) and at least 30 mg/mL in series [3] (pH 7.4, aqueous buffer). For the same molecule, the “Dog PPB (FUplasma)” value in series [4] (fraction unbound, dog serum) is given as under 0.002.
On to `CC[C@H](C)[C@H](NC(=O)[C@H](CO)NC(=O)[C@H](Cc1ccc(O)cc1)NC(=O)[C@H](CC(=O)O)NC(=O)[C@H](CO)NC(=O)[C@@H](NC(=O)[C@H](Cc1ccccc1)NC(=O)[C@@H](NC(=O)CNC(=O)[C@H](CCC(=O)O)NC(=O)C(C)(C)NC(=O)[C@H](Cc1ccc(O)cc1)NC)[C@@H](C)O)[C@@H](C)CC)C(=O)N[C@@H](C)C(=O)N[C@@H](CC(C)C)C(=O)N[C@@H](CC(=O)O)C(=O)N[C@@H](CCCNC(=N)N)C(=O)NC(C)(C)C(=O)N[C@@H](C)C(=O)N[C@@H](CCC(N)=O)C(=O)NC(C)(C)C(=O)N[C@@H](CCCCNC(=O)COCCOCCNC(=O)COCCOCCNC(=O)CC[C@H](NC(=O)CC[C@H](NC(=O)CCCCCCCCCCCCCCCCC(=O)O)C(=O)O)C(=O)O)C(=O)N[C@@H](Cc1ccccc1)C(=O)N[C@H](C(=O)N[C@@H](CC(N)=O)C(=O)N[C@@H](Cc1c[nH]c2ccccc12)C(=O)N[C@@H](CC(C)C)C(=O)N[C@@H](CC(C)C)C(=O)N[C@@H](C)C(=O)N[C@@H](CCC(N)=O)C(=O)N[C@@H](CCCCN)C(=O)NCC(=O)O)C(C)C` [Compound 41, Me-Y-Aib-E-G-T-F-I-S-D-Y-S-I-A-L-D-R-Aib-A-Q-Aib-Km-F-V-N-W-L-L-A-Q-K-G-OH] (H-[NMeY][Aib]EGTFISDYSIALDR[Aib]AQ[Aib]K([AEEA-AEEA-γGlu-γGlu-C18 diacid])FVNWLLAQKG-OH), for which the “Human PPB (FUplasma)” value in series [1] (fraction unbound, human plasma, 1000 nmol/L peptide, ultracentrifugation) was under 0.002. Besides, in series [1] (setting [5]), the “free unbound peptide” value is on record as “optimum free unbound peptide”. In addition, in series [2] (IV 3 nmol/kg, read-out: IV T½ (converted)), the half-life is 115 h. The MRT last in series [2] (SC 3 nmol/kg, read-out: SC MRT 0-last) is 119 h. Further, the solubility in series [3] (pH 7.4) was at least 15 mg/mL. In addition, in series [4] (pH 7.4, fraction unbound, dog serum, read-out: Dog PPB (FUplasma)), the fraction unbound is 0.0007.
`CC[C@H](C)[C@H](NC(=O)[C@H](CO)NC(=O)[C@H](Cc1ccc(O)cc1)NC(=O)[C@H](CC(=O)O)NC(=O)[C@H](CO)NC(=O)[C@@H](NC(=O)[C@H](Cc1ccccc1)NC(=O)[C@@H](NC(=O)CNC(=O)[C@H](CCC(=O)O)NC(=O)C(C)(C)NC(=O)[C@H](Cc1ccc(O)cc1)NC)[C@@H](C)O)[C@@H](C)CC)C(=O)N[C@@H](C)C(=O)N[C@@H](CC(C)C)C(=O)N[C@@H](CC(=O)O)C(=O)N[C@@H](CCCNC(=N)N)C(=O)NC(C)(C)C(=O)N[C@@H](CCCCNC(=O)COCCOCCNC(=O)COCCOCCNC(=O)CC[C@H](NC(=O)CC[C@H](NC(=O)CCCCCCCCCCCCCCCCC(=O)O)C(=O)O)C(=O)O)C(=O)N[C@@H](CCC(N)=O)C(=O)NC(C)(C)C(=O)N[C@@H](CC(N)=O)C(=O)N[C@@H](Cc1ccccc1)C(=O)N[C@H](C(=O)N[C@@H](CC(N)=O)C(=O)N[C@@H](Cc1c[nH]c2ccccc12)C(=O)N[C@@H](CC(C)C)C(=O)N[C@@H](CC(C)C)C(=O)N[C@@H](C)C(=O)N[C@@H](CCC(N)=O)C(=O)N[C@@H](CO)C(=O)N1CCC[C@H]1C(=O)N[C@@H](CO)C(=O)N[C@@H](CO)C(=O)NCC(=O)N[C@@H](C)C(=O)N1CCC[C@H]1C(=O)N1CCC[C@H]1C(=O)N1CCC[C@H]1C(=O)N[C@@H](CO)C(N)=O)C(C)C` [Compound 293, Me-Y-Aib-E-G-T-F-I-S-D-Y-S-I-A-L-D-R-Aib-Km-Q-Aib-N-F-V-N-W-L-L-A-Q-S-P-S-S-G-A-P-P-P-S-NH2] (H-[NMeY][Aib]EGTFISDYSIALDR[Aib]K([AEEA-AEEA-γGlu-γGlu-C18 diacid])Q[Aib]NFVNWLLAQSPSSGAPPPS-NH2): the fraction unbound at 30 min, 1000 nmol/L in series [1] (human, plasma) was under 0.002; in series [4] (dog, serum, pH 7.4) it was under 0.002. For the same molecule, the “free unbound peptide” value in series [1] (human, plasma) is reported as “optimum free unbound peptide”. In series [2] (iv, 3 nmol/kg), this molecule had a half-life of 68 h. For the same molecule, the mean residence time MRT last in series [2] (sc, 3 nmol/kg) was found to be 83 h. The solubility was at least 15 mg/mL in series [3] (pH 7.4) and at least 30 mg/mL in series [3] (pH 7.4, aqueous buffer).

By MRT last is commonly meant the average time that molecules of a dose stay in the body. As usually defined, the solubility is the dissolved amount per volume that the medium holds. Lower therefore signals a poorly soluble substance.
